Measurements taken from PubChem BioAssay (NCI).
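96-well plates; 48 h exposure; 5 concentrations. Endpoints by linear interpolation between flanking doses. Not reached: highest tested concentration assigned. At the GI50, growth is halved. TGI denotes the concentration required for complete inhibition of growth.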

Legend:
Assay in all cases: NCI tumour cell line growth inhibition, 48 h
LXFL 529 NSCLC = system: LXFL 529 NSCLC
BT-549 breast = system: BT-549 breast
RXF-631 renal = system: RXF-631 renal
P388 leukemia = system: P388 leukemia
P388/ADR leukemia = system: P388/ADR leukemia
SN12K1 renal = system: SN12K1 renal

**Q.** Which TGI (LXFL 529 NSCLC) does the source give for `C[n+]1ccc(-c2cc[n+](C)cc2)cc1` here?
**A.** > 53.3 µM

**Q.** Which TGI (BT-549 breast) does the source give for `c1ccc2sc(SCN(C3CCCCC3)C3CCCCC3)nc2c1` here?
**A.** > 100 µM

**Q.** For `Nc1ccc(Nc2c3ccccc3nc3ccccc23)cc1`, which TGI (BT-549 breast) is on record?
**A.** > 10 µM

**Q.** With `Nc1nnc(N)n1NC(=O)C(=O)Nc1ccc([N+](=O)[O-])cc1` as the compound, how does the TGI (RXF-631 renal) read?
**A.** > 100 µM

**Q.** With `COc1cc2c(cc1Oc1ccc(OC)c3c1CC1c4c(cc(OC)c(OC)c4-3)CCN1C)CC1c3c(cc(OC)c(OC)c3-2)CCN1C` (centres undefined) as the compound, how does the TGI (P388 leukemia) read?
**A.** 4.02 µM

**Q.** And the TGI (P388/ADR leukemia)?
**A.** 5.71 µM

**Q.** And the TGI (SN12K1 renal)?
**A.** 2.54 µM

**Q.** `Fc1ccc(-c2nnc3sc(COc4ccccc4Cl)nn23)cc1Cl` was tested. Which GI50 (BT-549 breast) did it give?
**A.** 22.9 µM

**Q.** What about the TGI (BT-549 breast) of the same compound?
**A.** 64.4 µM

**Q.** How did the TGI (BT-549 breast) turn out when `O=C1c2ccccc2C(=O)c2c1ccc(C(=O)O)c2-c1ccc2ccccc2c1` was run?
**A.** 68.3 µM

**Q.** For `CCCCCCCCCCCCCCCCOCC(COP(=O)([O-])OCC[n+]1ccc(N(C)C)cc1)OCC` (centres undefined), which TGI (BT-549 breast) is on record?
**A.** 20.2 µM

**Q.** How did the TGI (BT-549 breast) turn out when `COc1ccc(CC2c3cc(OC)c(OC)c(OC)c3CC[N+]2(C)C)cc1Oc1ccc(CC2c3cc4c(c(OC)c3CCN2C)OCO4)cc1` (centres undefined) was run?
**A.** > 100 µM

**Q.** `Cc1cc(=O)oc2c1cc(OCC(=O)OCCN1CCCCC1)c1occ(C)c12` was tested. Which TGI (LXFL 529 NSCLC) did it give?
**A.** > 100 µM

**Q.** How did the TGI (LXFL 529 NSCLC) turn out when `COc1cc(O)c2c(c1)C(=O)c1cc(C)cc(O)c1C2=O` was run?
**A.** > 100 µM

**Q.** What about the TGI (RXF-631 renal) of the same compound?
**A.** > 100 µM

**Q.** Which results are given for `COc1cc(C)c2c(=O)c3c(oc2c1)C(=O)c1c(O)c(OC)cc(O)c1C3=O`?
**A.** TGI (P388 leukemia): > 50 µM; TGI (P388/ADR leukemia): > 50 µM; TGI (SN12K1 renal): 2.69 µM

**Q.** How did the TGI (BT-549 breast) turn out when `O=c1cc(O)c2ccccc2o1` was run?
**A.** > 100 µM

**Q.** `CC(C)=CCC[C@](C)(O[C@@H]1O[C@H](CO)[C@@H](O)[C@H](O)[C@H]1O)[C@H]1CC[C@]2(C)[C@@H]1[C@H](O)C[C@@H]1[C@@]3(C)CC[C@H](O)C(C)(C)[C@@H]3[C@@H](O[C@@H]3O[C@H](CO)[C@@H](O)[C@H](O)[C@H]3O)C[C@]12C` was tested. Which TGI (BT-549 breast) did it give?
**A.** > 100 µM

**Q.** Which TGI (BT-549 breast) does the source give for `Cn1c(Sc2ccc(-c3cccnc3)n2C)ccc1-c1cccnc1` here?
**A.** 49.8 µM

**Q.** For `COc1c(Cl)cc(S(=O)O)cc1Cl`, which TGI (LXFL 529 NSCLC) is on record?
**A.** > 100 µM

**Q.** How did the TGI (LXFL 529 NSCLC) turn out when `NC(=O)Nc1cc(O)ccc1N=Nc1ccc(S(=O)(=O)Nc2ccccn2)cc1` was run?
**A.** > 100 µM

**Q.** With `CCOC(=O)NC` as the compound, how does the TGI (BT-549 breast) read?
**A.** > 100 µM
